# Assay results from patent US20100298141A1, “SUBSTITUTED PYRIDINE N-OXIDE HERBICIDES” (E. I. DU PONT DE NEMOURS AND COMPANY, priority 2007, published 2010).
# What was measured:
# annual bluegrass = assay: Test D preemergence test; assay type: in vivo, Poa annua; details: scale 0 to 100
# Summary of the method: (§1)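 Test chemicals, formulated in a surfactant-containing non-phytotoxic solvent mixture, are applied preemergence after the seeds are planted. Entries shown as a dash mean no result was obtained.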
# field sandbur = assay: Test G preemergence test; assay type: in vivo, Cenchrus incertus; details: scale 0 to 100
# tall waterhemp = assay: Test G preemergence test; assay type: in vivo, Amaranthus tuberculatos; details: scale 0 to 100
# giant foxtail = assay: Test G preemergence test; assay type: in vivo, Setaria faberii; details: scale 0 to 100
# broadleaf signalgrass = assay: Test G preemergence test; assay type: in vivo, Brachiaria platyphylla; details: scale 0 to 100
# woolly cupgrass = assay: Test G preemergence test; assay type: in vivo, Eriochloa villosa; details: scale 0 to 100
# windgrass = assay: Test D preemergence test; assay type: in vivo, Apera spica-venti; details: scale 0 to 100
# Summary of the method: as §1
# goosegrass = assay: Test G preemergence test; assay type: in vivo, Eleusine indica; details: scale 0 to 100
# wild oat = assay: Test D preemergence test; assay type: in vivo, Avena fatua; details: scale 0 to 100
# Summary of the method: as §1
# littleseed canarygrass = assay: Test D preemergence test; assay type: in vivo, Phalaris minor; details: scale 0 to 100
# Summary of the method: as §1
# field violet = assay: Test D preemergence test; assay type: in vivo, Viola arvensis; details: scale 0 to 100
# Summary of the method: as §1
# millet = assay: Test G preemergence test; assay type: in vivo, Panicum miliaceum; details: scale 0 to 100
# large crabgrass = assay: Test G preemergence test; assay type: in vivo, Digitaria sanguinalis; details: scale 0 to 100
# millet foxtail = assay: Test G preemergence test; assay type: in vivo, Setaria italica; details: scale 0 to 100
# duck salad = assay: Test B flooded paddy test; assay type: in vivo, Heteranthera limosa; details: Flood, 250 g ai/ha, 13 to 15 days; scale 0 to 100, 0 no effect, 100 complete control
# Summary of the method: (§2)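 Flooded 3 cm over soil; compound into paddy water; depth kept constant. Greenhouse 13–15 d.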
# corn = assay: Test G preemergence test; assay type: in vivo, Zea mays; details: scale 0 to 100
# winter barley = assay: Test D preemergence test; assay type: in vivo, Hordeum vulgare
# Summary of the method: as §1
# umbrella sedge = assay: Test B flooded paddy test; assay type: in vivo, Cyperus difformis; details: Flood, 250 g ai/ha, 13 to 15 days; scale 0 to 100, 0 no effect, 100 complete control
# Summary of the method: as §2
# barnyardgrass [1] = assay: Test B flooded paddy test; assay type: in vivo, Echinochloa crus-galli; details: Flood, 250 g ai/ha, 13 to 15 days; scale 0 to 100, 0 no effect, 100 complete control
# Summary of the method: as §2
# green foxtail = assay: Test D preemergence test; assay type: in vivo, Setaria viridis; details: scale 0 to 100
# Summary of the method: as §1
# winter wheat = assay: Test D preemergence test; assay type: in vivo, Triticum aestivum; details: scale 0 to 100
# Summary of the method: as §1
# eastern black nightshade = assay: Test G preemergence test; assay type: in vivo, Solanum ptycanthum; details: scale 0 to 100
# rice = assay: Test B flooded paddy test; assay type: in vivo, Oryza sativa; details: Flood, 250 g ai/ha, 13 to 15 days; scale 0 to 100, 0 no effect, 100 complete control
# Summary of the method: as §2
# lambsquarters = assay: Test G preemergence test; assay type: in vivo, Chenopodium album; details: scale 0 to 100
# barnyardgrass [2] = assay: Test G preemergence test; assay type: in vivo, Echinochloa crus-galli; details: scale 0 to 100
# soybean = assay: Test G preemergence test; assay type: in vivo, Glycine max; details: scale 0 to 100
compound,measurement,setting,value
Cn1nc(C(F)(F)F)c(CS(=O)(=O)c2cccc[n+]2[O-])c1OC(F)F [Compound 4],"Plant response rating, Bluegrass",annual bluegrass; 31 g ai/ha,50
same,"Plant response rating, Bluegrass",annual bluegrass; 62 g ai/ha,50
same,"Plant response rating, Bluegrass",annual bluegrass; 125 g ai/ha,80
same,"Plant response rating, Bluegrass",annual bluegrass; 250 g ai/ha,100
same,"Plant response rating, Sandbur",field sandbur; 31 g ai/ha,0
same,"Plant response rating, Sandbur",field sandbur; 62 g ai/ha,30
same,"Plant response rating, Sandbur",field sandbur; 125 g ai/ha,60
same,"Plant response rating, Sandbur",field sandbur; 250 g ai/ha,100
same,"Plant response rating, Waterhemp",tall waterhemp; 31 g ai/ha,80
same,"Plant response rating, Waterhemp",tall waterhemp; 62 g ai/ha,100
same,"Plant response rating, Waterhemp",tall waterhemp; 125 g ai/ha,100
same,"Plant response rating, Waterhemp",tall waterhemp; 250 g ai/ha,100
same,"Plant response rating, Foxtail, Giant",giant foxtail; 31 g ai/ha,40
same,"Plant response rating, Foxtail, Giant",giant foxtail; 62 g ai/ha,50
same,"Plant response rating, Foxtail, Giant",giant foxtail; 125 g ai/ha,90
same,"Plant response rating, Foxtail, Giant",giant foxtail; 250 g ai/ha,100
same,"Plant response rating, Signalgrass",broadleaf signalgrass; 31 g ai/ha,0
same,"Plant response rating, Signalgrass",broadleaf signalgrass; 62 g ai/ha,20
same,"Plant response rating, Signalgrass",broadleaf signalgrass; 125 g ai/ha,80
same,"Plant response rating, Signalgrass",broadleaf signalgrass; 250 g ai/ha,90
same,"Plant response rating, Cupgrass, Woolly",woolly cupgrass; 31 g ai/ha,0
same,"Plant response rating, Cupgrass, Woolly",woolly cupgrass; 62 g ai/ha,75
same,"Plant response rating, Cupgrass, Woolly",woolly cupgrass; 125 g ai/ha,75
same,"Plant response rating, Cupgrass, Woolly",woolly cupgrass; 250 g ai/ha,100
same,"Plant response rating, Windgrass",windgrass; 31 g ai/ha,90
same,"Plant response rating, Windgrass",windgrass; 62 g ai/ha,100
same,"Plant response rating, Windgrass",windgrass; 125 g ai/ha,100
same,"Plant response rating, Windgrass",windgrass; 250 g ai/ha,100
same,"Plant response rating, Goosegrass",goosegrass; 31 g ai/ha,80
same,"Plant response rating, Goosegrass",goosegrass; 62 g ai/ha,95
same,"Plant response rating, Goosegrass",goosegrass; 125 g ai/ha,100
same,"Plant response rating, Goosegrass",goosegrass; 250 g ai/ha,100
same,"Plant response rating, Oat, Wild",wild oat; 31 g ai/ha,25
same,"Plant response rating, Oat, Wild",wild oat; 62 g ai/ha,30
same,"Plant response rating, Oat, Wild",wild oat; 125 g ai/ha,30
same,"Plant response rating, Oat, Wild",wild oat; 250 g ai/ha,35
same,"Plant response rating, Canarygrass",littleseed canarygrass; 31 g ai/ha,30
same,"Plant response rating, Canarygrass",littleseed canarygrass; 62 g ai/ha,100
same,"Plant response rating, Canarygrass",littleseed canarygrass; 125 g ai/ha,100
same,"Plant response rating, Canarygrass",littleseed canarygrass; 250 g ai/ha,100
same,"Plant response rating, Field Violet",field violet; 31 g ai/ha,0
same,"Plant response rating, Field Violet",field violet; 62 g ai/ha,0
same,"Plant response rating, Field Violet",field violet; 125 g ai/ha,0
same,"Plant response rating, Field Violet",field violet; 250 g ai/ha,10
same,"Plant response rating, Millet",millet; 31 g ai/ha,20
same,"Plant response rating, Millet",millet; 62 g ai/ha,40
same,"Plant response rating, Millet",millet; 125 g ai/ha,40
same,"Plant response rating, Millet",millet; 250 g ai/ha,100
same,"Plant response rating, Crabgrass, Large",large crabgrass; 31 g ai/ha,85
same,"Plant response rating, Crabgrass, Large",large crabgrass; 62 g ai/ha,80
same,"Plant response rating, Crabgrass, Large",large crabgrass; 125 g ai/ha,95
same,"Plant response rating, Crabgrass, Large",large crabgrass; 250 g ai/ha,100
same,"Plant response rating, Foxtail, Millet",millet foxtail; 31 g ai/ha,30
same,"Plant response rating, Foxtail, Millet",millet foxtail; 62 g ai/ha,40
same,"Plant response rating, Foxtail, Millet",millet foxtail; 125 g ai/ha,70
same,"Plant response rating, Foxtail, Millet",millet foxtail; 250 g ai/ha,100
same,"Plant response rating, Ducksalad",duck salad,90
same,"Plant response rating, Corn",corn; 31 g ai/ha,0
same,"Plant response rating, Corn",corn; 62 g ai/ha,0
same,"Plant response rating, Corn",corn; 125 g ai/ha,5
same,"Plant response rating, Corn",corn; 250 g ai/ha,0
same,"Plant response rating, Barley","winter barley; Preemergence, 62 g ai/ha, scale 0 to 100",30
same,"Plant response rating, Barley","winter barley; Preemergence, 125 g ai/ha, scale 0 to 100",30
same,"Plant response rating, Barley","winter barley; Preemergence, 31 g ai/ha, scale 0 to 100",30
same,"Plant response rating, Barley","winter barley; preemergence, 250 g ai/ha, scale 0 (no effect) to 100 (complete control)",35
same,"Plant response rating, Umbrella Sedge",umbrella sedge,100
same,"Plant response rating, Barnyardgrass",barnyardgrass [1],80
same,"Plant response rating, Foxtail, Green",green foxtail; 31 g ai/ha,40
same,"Plant response rating, Foxtail, Green",green foxtail; 62 g ai/ha,50
same,"Plant response rating, Foxtail, Green",green foxtail; 125 g ai/ha,50
same,"Plant response rating, Foxtail, Green",green foxtail; 250 g ai/ha,100
same,"Plant response rating, Wheat, Winter",winter wheat; 31 g ai/ha,30
same,"Plant response rating, Wheat, Winter",winter wheat; 62 g ai/ha,20
same,"Plant response rating, Wheat, Winter",winter wheat; 125 g ai/ha,25
same,"Plant response rating, Wheat, Winter",winter wheat; 250 g ai/ha,45
same,"Plant response rating, Nightshade",eastern black nightshade; 31 g ai/ha,20
same,"Plant response rating, Nightshade",eastern black nightshade; 62 g ai/ha,30
same,"Plant response rating, Nightshade",eastern black nightshade; 125 g ai/ha,90
same,"Plant response rating, Nightshade",eastern black nightshade; 250 g ai/ha,100
same,"Plant response rating, Rice, Transplanted",rice,90
same,"Plant response rating, Lambsquarters",lambsquarters; 31 g ai/ha,0
same,"Plant response rating, Lambsquarters",lambsquarters; 62 g ai/ha,10
same,"Plant response rating, Lambsquarters",lambsquarters; 125 g ai/ha,10
same,"Plant response rating, Lambsquarters",lambsquarters; 250 g ai/ha,10
same,"Plant response rating, Barnyardgrass",barnyardgrass [2]; 31 g ai/ha,70
same,"Plant response rating, Barnyardgrass",barnyardgrass [2]; 62 g ai/ha,100
same,"Plant response rating, Barnyardgrass",barnyardgrass [2]; 125 g ai/ha,100
same,"Plant response rating, Barnyardgrass",barnyardgrass [2]; 250 g ai/ha,100
same,"Plant response rating, Soybean",soybean; 31 g ai/ha,0
same,"Plant response rating, Soybean",soybean; 62 g ai/ha,10
same,"Plant response rating, Soybean",soybean; 125 g ai/ha,15
same,"Plant response rating, Soybean",soybean; 250 g ai/ha,15
